These results are taken from BindingDB's records for doi:10.1021/jm0494669 (Italy. Vinc, 2004).

The target of this experiment is RNA-directed RNA polymerase (Hepacivirus hominis, UniProt Q8JXU8). Kind of experiment: Inhibitory concentration required to inhibit HCV RNA dependent RNA polymerase Nonstructural protein 5B is determined.
RNA-directed RNA polymerase, sequence (Q8JXU8 whole entry): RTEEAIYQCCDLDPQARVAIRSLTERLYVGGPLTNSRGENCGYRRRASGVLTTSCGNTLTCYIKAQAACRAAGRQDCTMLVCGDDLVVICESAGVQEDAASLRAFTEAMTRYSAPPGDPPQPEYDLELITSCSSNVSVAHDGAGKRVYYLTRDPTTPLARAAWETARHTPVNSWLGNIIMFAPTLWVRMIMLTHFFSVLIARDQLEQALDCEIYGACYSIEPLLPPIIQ

For `O=C(O)C(=O)CC(=O)c1ccccc1`, the IC50 – broadly, the midpoint of a concentration-inhibition curve – was found to be 5.7 µM.
